Consider one compound from paper PMC8931322 (Proceedings of the National Academy of Sciences of the …, 2022).

In general, EC50 refers to the concentration that produces a half-maximal response.

Common to all, as to assay type: cell-based
The target of one test is T1, AtSK22 (Arabidopsis thaliana, UniProt Q39012).
T1 sequence (Q39012 2-407): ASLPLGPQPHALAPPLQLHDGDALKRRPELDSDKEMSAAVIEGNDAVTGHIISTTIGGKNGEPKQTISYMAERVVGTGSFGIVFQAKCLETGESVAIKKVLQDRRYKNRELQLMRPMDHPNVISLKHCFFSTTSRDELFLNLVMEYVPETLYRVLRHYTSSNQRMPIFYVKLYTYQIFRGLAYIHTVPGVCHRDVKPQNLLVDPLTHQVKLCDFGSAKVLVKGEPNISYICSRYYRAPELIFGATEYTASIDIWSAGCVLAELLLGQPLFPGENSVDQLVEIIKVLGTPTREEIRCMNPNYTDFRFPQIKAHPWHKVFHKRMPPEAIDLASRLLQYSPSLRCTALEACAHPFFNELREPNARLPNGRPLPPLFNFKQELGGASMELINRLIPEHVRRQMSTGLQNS
Description: CETSA melting curve, Western blot. The note with it: intact cells, 250 µM bikinin, 30 min. (In western blotting, separated proteins are transferred to a membrane and probed.)

In the next test the target is T2, AtSK12 (Arabidopsis thaliana, UniProt P43289).
T2 sequence (P43289 2-409): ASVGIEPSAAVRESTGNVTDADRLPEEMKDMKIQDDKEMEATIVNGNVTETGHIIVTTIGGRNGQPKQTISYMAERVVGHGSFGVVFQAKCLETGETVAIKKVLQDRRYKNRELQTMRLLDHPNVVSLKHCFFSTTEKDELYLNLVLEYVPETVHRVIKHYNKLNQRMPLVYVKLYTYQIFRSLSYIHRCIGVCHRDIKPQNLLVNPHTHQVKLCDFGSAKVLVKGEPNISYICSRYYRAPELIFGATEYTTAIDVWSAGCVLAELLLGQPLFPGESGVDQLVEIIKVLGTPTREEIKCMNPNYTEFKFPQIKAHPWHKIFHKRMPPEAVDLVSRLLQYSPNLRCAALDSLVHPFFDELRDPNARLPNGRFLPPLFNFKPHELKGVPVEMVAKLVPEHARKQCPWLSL
The test can be described thus: isothermal dose-response CETSA.

The next test has as its target T3, AtSK41 (Arabidopsis thaliana, UniProt Q39019).
T3 sequence (Q39019 1-421): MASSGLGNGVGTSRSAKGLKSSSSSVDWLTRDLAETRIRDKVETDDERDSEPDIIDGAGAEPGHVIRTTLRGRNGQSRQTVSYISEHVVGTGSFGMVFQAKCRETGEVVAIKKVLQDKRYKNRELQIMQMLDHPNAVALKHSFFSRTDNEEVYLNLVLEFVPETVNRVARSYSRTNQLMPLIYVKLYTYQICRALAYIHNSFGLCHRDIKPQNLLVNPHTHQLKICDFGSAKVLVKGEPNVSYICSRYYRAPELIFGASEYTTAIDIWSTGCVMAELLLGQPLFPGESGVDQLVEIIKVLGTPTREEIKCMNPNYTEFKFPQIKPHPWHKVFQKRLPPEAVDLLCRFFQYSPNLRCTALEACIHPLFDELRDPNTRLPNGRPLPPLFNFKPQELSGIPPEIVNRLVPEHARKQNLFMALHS
Description: CETSA melting curve, Western blot. As to conditions: intact cells, 250 µM bikinin, 30 min.

The target of another test is T4, AtSK11 (Arabidopsis thaliana, UniProt P43288).
T4 sequence (P43288 2-405): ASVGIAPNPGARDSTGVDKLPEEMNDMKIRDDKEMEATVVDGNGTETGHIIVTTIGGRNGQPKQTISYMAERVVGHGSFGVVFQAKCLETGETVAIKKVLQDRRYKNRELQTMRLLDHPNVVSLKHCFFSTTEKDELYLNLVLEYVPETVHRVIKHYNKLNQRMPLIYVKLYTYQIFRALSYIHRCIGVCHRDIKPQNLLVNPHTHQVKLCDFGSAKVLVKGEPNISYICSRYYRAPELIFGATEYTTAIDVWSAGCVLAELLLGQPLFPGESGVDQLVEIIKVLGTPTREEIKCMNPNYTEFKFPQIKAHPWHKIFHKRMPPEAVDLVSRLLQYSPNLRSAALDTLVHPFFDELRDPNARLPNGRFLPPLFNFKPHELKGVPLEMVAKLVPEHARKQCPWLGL
Description: CETSA melting curve, Western blot. The note with it: intact cells, 250 µM bikinin, 30 min.

Another test addresses T5, BIN2/AtSK21 (Arabidopsis thaliana, UniProt Q39011).
T5 sequence (Q39011 1-380): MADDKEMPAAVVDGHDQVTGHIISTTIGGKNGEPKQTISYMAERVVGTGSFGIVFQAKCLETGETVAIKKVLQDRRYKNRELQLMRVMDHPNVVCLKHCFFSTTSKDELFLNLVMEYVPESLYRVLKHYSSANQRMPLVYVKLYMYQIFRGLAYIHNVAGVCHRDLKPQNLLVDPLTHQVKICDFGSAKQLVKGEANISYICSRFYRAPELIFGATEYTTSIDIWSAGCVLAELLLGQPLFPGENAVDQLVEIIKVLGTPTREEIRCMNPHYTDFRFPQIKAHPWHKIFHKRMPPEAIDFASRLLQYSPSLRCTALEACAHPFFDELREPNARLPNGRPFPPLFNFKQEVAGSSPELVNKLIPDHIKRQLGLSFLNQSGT
Description: CETSA melting curve, Western blot. As to conditions: intact cells, 250 µM bikinin, 30 min.

On to `O=C(O)CCC(=O)Nc1ccc(Br)cn1` [bikinin], for which the Tm shift result on AtSK22 was “BIN2/AtSK21, AtSK22, and AtSK41 showed Tm shifts”; on AtSK41, “BIN2/AtSK21, AtSK22, and AtSK41 showed Tm shifts”; on AtSK11, “AtSK11, AtSK12, AtSK13, BIN2/AtSK21, AtSK22, and AtSK41 showed Tm shifts”; on BIN2/AtSK21, “BIN2/AtSK21, AtSK22, and AtSK41 showed Tm shifts”. Further, the EC50 at AtSK12 is ~70 µM.
